Patent US20080221086A1, “Novel Inhibitors of Glutaminyl Cyclase” (PROBIODRUG AG, priority 2006, published 2008)

Each molecule was assayed against hQC (Homo sapiens, UniProt Q16769) (assay: Fluorometric assay of glutaminyl cyclase (QC) inhibition, H-Gln-βNA or H-Gln-AMC substrate). Conditions: compound from preparative synthesis, purified by chromatography; fluorescent assay; read-out: IC50 hQC.
Assay type: biochemical
Experimental: All compounds were immediately tested regarding their activity as hQC inhibitors.
The purity of the compounds was determined by HPLC-MS. The IC50 value against hQC was measured using the fluorescent assay.
All measurements were performed with a BioAssay Reader HTS-7000Plus for microplates (Perkin Elmer) at 30° C. QC activity was evaluated fluorometrically using H-Gln-βNA. The samples consisted of 0.2 mM fluorogenic substrate, 0.25 U pyroglutamyl aminopeptidase (Unizyme, Hørsholm, Denmark) in 0.2 M Tris/HCl, pH 8.0 containing 20 mM EDTA and an appropriately diluted aliquot of QC in a final volume of 250 μl. Excitation/emission wavelengths were 320/410 nm. The assay reactions were initiated by addition of glutaminyl cyclase. QC activity was determined from a standard curve of β-naphthylamine under assay conditions. One unit is defined as the amount of QC catalyzing the formation of 1 μmol pGlu-βNA from H-Gln-βNA per minute under the described conditions.
In a second fluorometric assay, QC was activity was determined using H-Gln-AMC as substrate. Reactions were carried out at 30° C. utilizing the NOVOStar reader for microplates (BMG labtechnologies). The samples consisted of varying concentrations of the fluorogenic substrate, 0.1 U pyroglutamyl aminopeptidase (Qiagen) in 0.05 M Tris/HCl, pH 8.0 containing 5 mM EDTA and an appropriately diluted aliquot of QC in a final volume of 250 μl. Excitation/emission wavelengths were 380/460 nm. The assay reactions were initiated by addition of glutaminyl cyclase. QC activity was determined from a standard curve of 7-amino-4-methylcoumarin under assay conditions. The kinetic data were evaluated using GraFit software.
For inhibitor testing, the sample composition was the same as described above, except of the putative inhibitory compound added. For a rapid test of QC-inhibition, samples contained 4 mM of the respective inhibitor and a substrate concentration at 1 KM. For detailed investigations of the inhibition and determination of Ki-values, influence of the inhibitor on the auxiliary enzymes was investigated first. In every case, there was no influence on either enzyme detected, thus enabling the reliable determination of the QC inhibition. The inhibitory constant was evaluated by fitting the set of progress curves to the general equation for competitive inhibition using GraFit software.

Sequence of hQC (Q16769 29-361): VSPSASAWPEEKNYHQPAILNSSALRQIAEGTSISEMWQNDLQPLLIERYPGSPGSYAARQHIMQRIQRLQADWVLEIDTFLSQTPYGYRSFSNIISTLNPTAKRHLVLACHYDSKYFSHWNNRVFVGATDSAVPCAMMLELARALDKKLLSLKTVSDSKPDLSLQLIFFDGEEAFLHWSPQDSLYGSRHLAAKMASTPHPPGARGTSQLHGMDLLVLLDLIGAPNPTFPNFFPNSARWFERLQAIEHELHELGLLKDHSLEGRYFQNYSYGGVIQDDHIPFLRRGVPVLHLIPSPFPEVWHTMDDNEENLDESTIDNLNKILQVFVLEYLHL

IC50 [µM] | SMILES
0.0282 | O=C1N/C(=N\[C@H]2CCc3ccccc32)C(c2ccc(Br)cc2)N1c1ccc2[nH]cnc2c1 (stereo partly drawn) [Compound 333, 1-(1H-Benzoimidazol-5-yl)-5-(4-bromo-phenyl)-4-((S)-indan-1-ylimino)-imidazolidin-2-one]

Same assay, conditions: read-out: IC50

SMILES | IC50 [µM]
O=C1N/C(=N\c2ccc3c(c2)OCCO3)C(c2cc(F)cc(F)c2)N1CCCn1ccnc1 (centres unmarked) [Compound 32, 5-(3,5-Difluoro-phenyl)-4-2,3-dihydro-benzo1,4dioxin-6-ylimino-1-(3-imidazol-1-yl-propyl)-imidazolidin-2-one] | 6.7
O=C1N/C(=N\c2ccc3c(c2)OCCO3)C(c2cccc(F)c2F)N1CCCn1ccnc1 (centres unmarked) [Compound 31, 5-(2,3-Difluoro-phenyl)-4-2,3-dihydro-benzo1,4dioxin-6-ylimino-1-(3-imidazol-1-yl-propyl)-imidazolidin-2-one] | 9.4
O=C1N/C(=N/CCCc2ccccc2)C(c2c[nH]c3cc(F)ccc23)N1c1ccc2[nH]cnc2c1 (centres unmarked) [Compound 232, 1-(1H-Benzoimidazol-5-yl)-5-(6-fluoro-1H-indol-3-yl)-4-3-phenyl-propylimino-imidazolidin-2-one] | 2.2
Cc1cccc(C2/C(=N/CC(=O)N3Cc4ccccc4C3)NC(=O)N2CCCn2ccnc2)c1O (centres unmarked) [Compound 12, 4-2-(1,3-Dihydro-isoindol-2-yl)-2-oxo-ethylimino-5-(2-hydroxy-3-methyl-phenyl)-1-(3-imidazol-1-yl-propyl)-imidazolidin-2-one] | 9.6
O=C1CCCN1CCC/N=C1\NC(=O)N(c2ccc3[nH]cnc3c2)C1c1ccnc2ccccc12 (centres unmarked) [Compound 247, 1-(1H-Benzoimidazol-5-yl)-4-3-(2-oxo-pyrrolidin-1-yl)-propylimino-5-quinolin-4-yl-imidazolidin-2-one] | 3.1
O=C1N/C(=N\C2CCCCC2O)C(c2coc3ccccc3c2=O)N1c1ccc2[nH]cnc2c1 (centres unmarked) [Compound 297, 1-(1H-Benzoimidazol-5-yl)-4-2-hydroxy-cyclohexylimino-5-(4-oxo-4H-chromen-3-yl)-imidazolidin-2-one] | 9.4
O=C(C/N=C1/NC(=O)N(CCCn2ccnc2)C1CO)N1CCc2ccccc2C1 (centres unmarked) [Compound 72, 4-2-(3,4-Dihydro-1H-isoquinolin-2-yl)-2-oxo-ethylimino-5-hydroxymethyl-1-(3-imidazol-1-yl-propyl)-imidazolidin-2-one] | 8.5
COC(=O)C(C)/N=C1/NC(=S)N(c2ccc3[nH]cnc3c2)C1c1c(F)ccc(Cl)c1F (centres unmarked) [Compound 268, Methyl 2-(1-(1H-benzo[d]imidazol-5-yl)-5-(3-chloro-2,6-difluorophenyl)-2-thioxoimidazolidin-4-ylideneamino)propanoate] | 9.4
CC1/C(=N/C(c2ccccc2)c2ccccc2)NC(=O)N1CCCn1ccnc1 (centres unmarked) [Compound 80, 4-Benzhydrylimino-1-(3-imidazol-1-yl-propyl)-5-methyl-imidazolidin-2-one] | 9.4
O=C1N/C(=N/CCCc2ccccc2)C(c2ccc3[nH]ccc3c2)N1c1ccc2[nH]cnc2c1 (centres unmarked) [Compound 224, 1-(1H-Benzoimidazol-5-yl)-5-(1H-indol-5-yl)-4-3-phenyl-propylimino-imidazolidin-2-one] | 0.004
O=C1NC(=NCCC(c2ccccc2)c2ccccc2)C(c2ccc(Cl)c(F)c2)N1CCCn1ccnc1 (centres unmarked) [Compound 109, 5-(4-Chloro-3-fluoro-phenyl)-4-3,3-diphenyl-propylimino-1-(3-imidazol-1-yl-propyl)-imidazolidin-2-one] | 7.6
C/N=C1/NC(=O)N(c2ccc3[nH]cnc3c2)C1c1ccc2c(c1)OCCO2 (centres unmarked) [Compound 123, 1-(1H-Benzoimidazol-5-yl)-5-(2,3-dihydro-benzo1,4dioxin-6-yl)-4-methylimino-imidazolidin-2-one] | 0.4

Further molecules by falling IC50, results first:

IC50 [µM] | SMILES
9.4 | OC1CCCCC1N=C1NC(=S)N(c2ccc3[nH]cnc3c2)C1c1ccc2nsnc2c1 (centres unmarked) [Compound 312, 1-(1H-Benzoimidazol-5-yl)-5-benzo[c][1,2,5]thiadiazol-5-yl-4-2-hydroxy-cyclohexylimino-imidazolidine-2-thione]
9.4 | CC1=CC(C)C(C2/C(=N/c3ccc4c(c3)OCCO4)NC(=S)N2c2ccc3[nH]cnc3c2)CC1 (centres unmarked) [Compound 330, 1-(1H-Benzoimidazol-5-yl)-4-2,3-dihydro-benzo1,4dioxin-6-ylimino-5-(2,4-dimethyl-cyclohex-3-enyl)-imidazolidine-2-thione]
9.4 | CCCC1/C(=N\CCC(c2ccccc2)c2ccccc2)NC(=O)N1CCCn1ccnc1 (centres unmarked) [Compound 104, 4-3,3-Diphenyl-propylimino-1-(3-imidazol-1-yl-propyl)-5-propyl-imidazolidin-2-one]
7.6 | C/N=C1/NC(=O)N(CCCn2ccnc2)C1c1ccccc1 (centres unmarked) [Compound 14, 1-(3-Imidazol-1-yl-propyl)-4-methylimino-5-phenyl-imidazolidin-2-one]
7.6 | O=C1CCCN1CCC/N=C1\NC(=S)N(c2ccc3[nH]cnc3c2)C1c1cc2ccccc2s1 (centres unmarked) [Compound 252, 1-(3-(5-(benzo[b]thiophen-2-yl)-1-(1H-benzo[d]imidazol-5-yl)-2-thioxoimidazolidin-4-ylideneamino)propyl)pyrrolidin-2-one]
6.7 | Cc1ccc(C2/C(=N/C3CCCCC3O)NC(=O)N2c2ccc3nc[nH]c3c2)c(C)c1 (centres unmarked) [Compound 329, 1-(3H-Benzoimidazol-5-yl)-5-(2,4-dimethyl-phenyl)-4-2-hydroxy-cyclohexylimino-imidazolidin-2-one]
5.8 | S=C1N/C(=N\C2CCCc3ccccc32)C(c2cc(Br)cs2)N1c1ccc2nc[nH]c2c1 (centres unmarked) [Compound 311, 1-(3H-Benzoimidazol-5-yl)-5-(4-bromo-thiophen-2-yl)-4-1,2,3,4-tetrahydro-naphthalen-1-ylimino-imidazolidine-2-thione]
4 | S=C1NC(=NCCc2cccs2)C(c2cc3c(cc2Br)OCO3)N1c1ccc2nc[nH]c2c1 (centres unmarked) [Compound 137, 1-(3H-Benzoimidazol-5-yl)-5-(6-bromo-benzo1,3dioxol-5-yl)-4-2-thiophen-2-yl-ethylimino-imidazolidin-2-thione]
2.2 | O=C(C/N=C1\NC(=S)N(c2ccc3[nH]cnc3c2)C1c1c(F)ccc(Cl)c1F)N1CCCC(O)C1 (centres unmarked) [Compound 134, 2-(1-(1H-benzo[d]imidazol-5-yl)-5-(3-chloro-2,6-difluorophenyl)-2-thioxoimidazolidin-4-ylideneamino)-1-(3-hydroxypiperidin-1-yl)ethanone]
1.3 | O=C(C/N=C1\NC(=S)N(c2ccc3[nH]cnc3c2)C1c1ccccc1C(F)(F)F)N1CCCCC1 (centres unmarked) [Compound 144, 2-1-(1H-Benzoimidazol-5-yl)-2-thioxo-5-(2-trifluoromethyl-phenyl)-imidazolidin-(4Z)-ylideneamino-1-piperidin-1-yl-ethanone]
0.4 | C/N=C1/NC(=O)N(c2ccc3[nH]cnc3c2)C1c1ccc(C)cc1 (centres unmarked) [Compound 167, 1-(1H-Benzoimidazol-5-yl)-4-methylimino-5-p-tolyl-imidazolidin-2-one]
0.4 | C/N=C1/NC(=O)N(c2ccc3[nH]cnc3c2)C1c1ccc(Cl)c(F)c1 (centres unmarked) [Compound 339, 1-(1H-Benzoimidazol-5-yl)-5-(4-chloro-3-fluoro-phenyl)-4-methylimino-imidazolidin-2-one]
0.004 | O=C1N/C(=N\[C@H]2CCc3ccccc32)C(c2ccc(Br)cc2)N1c1ccc2[nH]cnc2c1 (stereo partly drawn) [Compound 333, 1-(1H-Benzoimidazol-5-yl)-5-(4-bromo-phenyl)-4-((S)-indan-1-ylimino)-imidazolidin-2-one]
